Data reported in patent EP0056458B1, “Nitrosourea derivatives, a process for preparing same and therapeutic compositions” (Tanabe Seiyaku Co., Ltd., priority 1981, dated 1982).
Marks after values point to notes of the source that are not given here.

What was measured:
tumor = experiment: Anti-tumor activity compared with a compound of the invention (no method given); conditions: compared with a respective comparative compound according to the invention
[1] = tested on: Ehrlich ascites carcinoma; experiment: Preventive effect against the growth of Ehrlich ascites tumor (method A); type: in vivo, mice; conditions: for Therapeutic index: M. T. D./M. E. D.; for inhibition in vivo at 3.12 mg/kg/day: dose 3.12 mg/kg/day i.p. x 5 days; for inhibition in vivo at 6.25 mg/kg/day: dose 6.25 mg/kg/day i.p. x 5 days; for inhibition in vivo at 12.5 mg/kg/day: dose 12.5 mg/kg/day i.p. x 5 days; for minimal effective dose: minimum effective dose which shows 100% inhibition for the growth of the ascites tumor, dose column in mg/kg/day, read-out: MED; for Toxic: group of five mice; for inhibition in vivo at 0.39 mg/kg/day: dose 0.39 mg/kg/day i.p. x 5 days
Method: (§1) (A) Preventive effect against the growth of Ehrlich ascites tumor:
(§2) 10^6 tumor cells of Ehrlich ascites carcinoma were inoculated intraperitoneally into a group of five female mice (ICR mice, body weight: 19-23 g). A test compound was dissolved in a physiological saline solution. (In the case where CCNU was employed as the test compound, said compound was suspended in a physiological saline solution containing 0.1% NIKKOL HCO-60 (trademark; a surface active agent manufactured by Nikko Chemicals Co. Ltd.)) and administered intraperitoneally to the mice. The administration of the test compound was begun 24 hours after the inoculation of the tumor cells and performed once a day for 5 days. The volume of ascites in the treated mice were measured after 7 days of the experiment.

leukemic cells of L-1210 = experiment: Effect on the life span of mice implanted with leukemic cells of L-1210 (method B); type: in vivo; conditions: for ILS (%): Increase in Life Span; for 60-day survivors: mice survived for 60 days/mice used
Method: (B) Effect on the life span of mice implanted with leukemic cells of L-1210:
10^5 leukemic cells of L-1210were inoculated intraperitoneally into a group of four male mice (BDF1 mice, body weight: 19-23 g). A test compound was dissolved in a physiological saline solution and administered intraperitoneally to the mice. The administration of the test compound was begun 24 hours after the inoculation of the leukemic cells and performed once a day for 5 days. The survival days of the treated mice were observed.

[2] = Preventive effect against the growth of Ehrlich ascites tumor (method A); type: in vivo, mice; conditions: mouse, in vivo, ip; Maximum Tolerated Dose: maximum dose with 100% inhibition of Ehrlich ascites tumor growth without death of mice; dose column in mg/kg/day
Method: as §1, §2

[3] = Mus musculus, Ehrlich, ip, 168 h, read-out: Inhibition ratio (%)
[4] = Mus musculus, Ehrlich, ip, 168 h, dose 50 mg/kg/day i.p. x 5 days, read-out: Inhibition ratio (%)
[5] = Mus musculus, Ehrlich, ip, 168 h
[6] = dose 100 mg/kg/day i.p. x 5 days
[7] = dose 6.25 mg/kg/day i.p. x 5 days
[8] = dose 12.5 mg/kg/day i.p. x 5 days
[9] = dose 25 mg/kg/day i.p. x 5 days
[10] = T (treated mice), dose 6.25 mg/kg/day i.p. x 5 days
[11] = T (treated mice), dose 12.5 mg/kg/day i.p. x 5 days
[12] = dose 3.12 mg/kg/day i.p. x 5 days

SMILES	Therapeutic index [1]	inhibition in vivo at 3.12 mg/kg/day [1, 3] [%]	inhibition in vivo at 6.25 mg/kg/day [1, 3] [%]	inhibition in vivo at 12.5 mg/kg/day [1, 3] [%]	inhibition in vivo at 50 mg/kg/day [1, 4] [%]	minimal effective dose [1, 5] [mg/kg/day]	Toxic [1, 6]	ILS (%) (leukemic cells of L-1210; [7])	ILS (%) (leukemic cells of L-1210; [8])	Mean survival days (T/C) (leukemic cells of L-1210; [10])	Mean survival days (T/C) (leukemic cells of L-1210; [11])	60-day survivors (leukemic cells of L-1210; [7])	60-day survivors (leukemic cells of L-1210; [8])	MTD at 168 h [2] [mg/kg/day]	inhibition in vivo at 0.39 mg/kg/day [1, 3] [%]	further results
O=C(NCCCl)N[C@H]1[C@H](O)[C@@H](CO)OC(O)[C@@H]1O (stereo partly shown) [3 - [3 - (2 - chloroethyl)ureido] - 3 - deoxy - D - glucopyranose]																anti-tumor activity (tumor): lower anti-tumor activity
O=NN(CCCl)C(=O)NC1CCCCC1 [CCNU, 1-(2-chloroethyl)-1-nitroso-3-cyclohexylurea, reference compound]	4	21.1	33.3	100	100	12.5	Toxic (5/5)*									
CCCCN(C(=O)N(CCCl)N=O)[C@@H]1[C@@H](O)[C@@H](OC)O[C@H](CO)[C@H]1O [Compound 1, 1 - (2 - chloroethyl) - 1 - nitroso - 3 - n - butyl - 3 - (methyl 3 - deoxy - a - D - glucopyranosid - 3 - yl)urea]	64	100		100	100	0.78	Toxic (4/5)*	111.3	>745.1	15.0/7.1 days	>60.0/7.1 days	0/4	4/4	50	59.5	ILS (%) (leukemic cells of L-1210; [9]): >745.1%; Mean survival days (T/C) (leukemic cells of L-1210; T (treated mice; figure after the slash is untreated control C), dose 25 mg/kg/day i.p. x 5 days): >60.0/7.1 days; 60-day survivors (leukemic cells of L-1210; [9]): 4/4; inhibition in vivo at 0.19 mg/kg/day ([1]; Mus musculus, Ehrlich, ip, 168 h, dose 0.19 mg/kg/day i.p. x 5 days, read-out: Inhibition ratio (%)): 14.3%; inhibition in vivo at 0.78 mg/kg/day ([1]; Mus musculus, Ehrlich, ip, 168 h, dose 0.78 mg/kg/day i.p. x 5 days, read-out: Inhibition ratio (%)): 100%
CO[C@H]1O[C@H](CO)[C@@H](O)[C@H](N(CC(C)C)C(=O)N(CCCl)N=O)[C@H]1O [Compound 2, 1 - (2 - chloroethyl) - 1 - nitroso - 3 - isobutyl - 3 - (methyl 3 - deoxy - a - D - glucopyranosid - 3 - yl)urea]	128		100			0.195		>597.7	>597.7	>60.0/8.6 days	>60.0/8.6 days	4/4	4/4	25	100	ILS (%) (leukemic cells of L-1210; [12]): 57.0%; Mean survival days (T/C) (leukemic cells of L-1210; T (treated mice), dose 3.12 mg/kg/day i.p. x 5 days): 13.5/8.6 days; 60-day survivors (leukemic cells of L-1210; [12]): 0/4; inhibition in vivo at 0.097 mg/kg/day ([1]; Mus musculus, Ehrlich, ip, 168 h, dose 0.097 mg/kg/day i.p. x 5 days, read-out: Inhibition ratio (%)): 8.1%; inhibition in vivo at 0.195 mg/kg/day ([1]; Mus musculus, Ehrlich, ip, 168 h, dose 0.195 mg/kg/day i.p. x 5 days, read-out: Inhibition ratio (%)): 100%; inhibition in vivo at 1.56 mg/kg/day ([1]; Mus musculus, Ehrlich, ip, 168 h, dose 1.56 mg/kg/day i.p. x 5 days, read-out: Inhibition ratio (%)): 100%; inhibition in vivo at 25 mg/kg/day ([1]; Mus musculus, Ehrlich, ip, 168 h, dose 25 mg/kg/day i.p. x 5 days, read-out: Inhibition ratio (%)): 100%; Toxic ([1]; dose 50 mg/kg/day i.p. x 5 days): Toxic (1/5)*
